US8653087B2, “Pyrido [5, 4-D] pyrimidines as cell proliferation inhibitors” (Boehringer Ingelheim International GmbH, priority 2008, dated 2014)

Target: B-Raf (V600E)-kinase (Homo sapiens (Human), UniProt P15056, V600E)
Test: Kinase test B-RAF (V600E)
Type: biochemical
Details: B-RAF (V600E) kinase test, 250 μM ATP
Method in brief: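 Read-out is DELFIA europium TRF of phospho-MEK (Ser217/221) on biotinylated MEK1 bound to streptavidin plates, IC50 from dose-response. Reaction ran 60 min at RT with 250 μM ATP, after a 24 h RT preincubation of compound with B-Raf (V600E) kinase, 5% DMSO final.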

Chain of B-Raf (V600E)-kinase (P15056 whole entry V600E): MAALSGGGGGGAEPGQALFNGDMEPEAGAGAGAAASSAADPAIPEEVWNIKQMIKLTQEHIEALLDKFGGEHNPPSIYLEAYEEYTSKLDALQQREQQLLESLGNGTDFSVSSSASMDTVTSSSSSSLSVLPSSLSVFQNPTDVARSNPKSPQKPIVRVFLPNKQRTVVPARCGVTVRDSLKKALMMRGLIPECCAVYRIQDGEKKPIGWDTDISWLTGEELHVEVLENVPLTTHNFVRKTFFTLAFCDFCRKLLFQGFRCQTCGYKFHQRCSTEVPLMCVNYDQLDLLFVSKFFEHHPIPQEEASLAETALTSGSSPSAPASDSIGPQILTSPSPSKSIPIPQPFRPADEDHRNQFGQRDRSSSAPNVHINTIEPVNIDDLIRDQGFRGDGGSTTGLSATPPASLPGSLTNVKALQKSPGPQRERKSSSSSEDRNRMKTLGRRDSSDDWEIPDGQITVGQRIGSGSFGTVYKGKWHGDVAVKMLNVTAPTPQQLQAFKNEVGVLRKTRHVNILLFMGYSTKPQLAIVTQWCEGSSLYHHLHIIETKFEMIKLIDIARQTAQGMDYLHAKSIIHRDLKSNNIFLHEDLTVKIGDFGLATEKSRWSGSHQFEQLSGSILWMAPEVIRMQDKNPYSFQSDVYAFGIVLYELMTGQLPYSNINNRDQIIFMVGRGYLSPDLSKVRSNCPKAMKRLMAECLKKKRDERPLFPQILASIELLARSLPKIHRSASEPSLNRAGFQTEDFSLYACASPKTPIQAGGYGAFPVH

| SMILES | IC50 [µM] |
| --- | --- |
| Cc1ccc(NC(=O)c2cccc(C(C)(C)C#N)c2)cc1Nc1ncnc2cnc(N(C)C3CCOC3)nc12 (stereo not shown) [IV-37] | 0.001 |
| Cc1ccc(NC(=O)c2cccc(C(C)(C)C#N)c2)cc1Nc1ncnc2cnc(NC3CCOCC3)nc12 [IV-38] | 0.002 |
| Cc1ccc(NC(=O)c2cccc(C(C)(C)C#N)c2)cc1Nc1ncnc2cnc(N(C)CC3CCOCC3)nc12 [IV-39] | 0.004 |
| COc1ncc2ncnc(Nc3cc(NC(=O)c4cccc(C(C)(C)C#N)c4)ccc3C)c2n1 [IV-40] | 0.002 |
| COc1ncc2ncnc(Nc3cc(NC(=O)c4ccc(OC)c(C(F)(F)F)c4)ccc3C)c2n1 [IV-42] | 0.013 |
| COc1ncc2ncnc(Nc3cc(NC(=O)c4cc(N5CCN(C)CC5)cc(C(F)(F)F)c4)ccc3C)c2n1 [IV-46] | 0.003 |
| COc1ncc2ncnc(Nc3cc(NC(=O)c4ccc(Cl)c(C(F)(F)F)c4)ccc3C)c2n1 [IV-50] | 0.059 |
| Cc1ccc(NS(=O)(=O)CC(F)(F)F)cc1Nc1ncnc2cnc(N3CCN(C)CC3)nc12 [IV-53] | 10 |
| Cc1ccc(NS(=O)(=O)CCC(C)C)cc1Nc1ncnc2cnc(N3CCN(C)CC3)nc12 [IV-54] | 10 |
| Cc1ccc(NS(=O)(=O)C2CCCCC2)cc1Nc1ncnc2cnc(N3CCN(C)CC3)nc12 [IV-55] | 10 |
| CCC(C)S(=O)(=O)Nc1ccc(C)c(Nc2ncnc3cnc(N4CCN(C)CC4)nc23)c1 (stereo not shown) [IV-56] | 10 |
| Cc1ccc(NS(=O)(=O)CC(C)C)cc1Nc1ncnc2cnc(N3CCN(C)CC3)nc12 [IV-57] | 10 |
| Cc1ccc(NS(=O)(=O)C(C)C)cc1Nc1ncnc2cnc(N3CCN(C)CC3)nc12 [IV-58] | 0.049 |
| Cc1ccc(NS(=O)(=O)CCC(F)(F)F)cc1Nc1ncnc2cnc(N3CCN(C)CC3)nc12 [IV-59] | 2 |
| Cc1ccc(NS(=O)(=O)CC2CC2)cc1Nc1ncnc2cnc(N3CCN(C)CC3)nc12 [IV-60] | 2 |
| Cc1ccc(NS(=O)(=O)c2cccc(C(F)(F)F)c2)cc1Nc1ncnc2cnc(N3CCN(C)CC3)nc12 [IV-61] | 10 |

| SMILES | IC50 [µM] |
| --- | --- |
| Cc1ccc(NS(=O)(=O)CC2CCCO2)cc1Nc1ncnc2cnc(N3CCN(C)CC3)nc12 (stereo not shown) [IV-62] | 2 |
| Cc1ccc(NS(=O)(=O)C2CC2)cc1Nc1ncnc2cnc(N3CCN(C)CC3)nc12 [IV-63] | 0.595 |
| CCS(=O)(=O)Nc1ccc(C)c(Nc2ncnc3cnc(N4CCN(C)CC4)nc23)c1 [IV-64] | 0.521 |
| CCCS(=O)(=O)Nc1ccc(C)c(Nc2ncnc3cnc(N4CCN(C)CC4)nc23)c1 [IV-65] | 2 |
| Cc1ccc(NS(C)(=O)=O)cc1Nc1ncnc2cnc(N3CCN(C)CC3)nc12 [IV-66] | 10 |
| CCN1CCN(c2cc(C(=O)Nc3ccc(C)c(Nc4ncnc5cnc(N6CCOCC6)nc45)c3)cc(C(C)(C)C#N)c2)CC1 [IV-67] | 0.002 |
| Cc1ccc(NC(=O)c2cc(N3CCN(C)CC3)cc(C(C)(C)C#N)c2)cc1Nc1ncnc2cnc(N3CCOCC3)nc12 [IV-68] | 0.003 |
| Cc1ccc(C(=O)Nc2cc(C(C)(C)C)on2)cc1Nc1ncnc2cncnc12 [V-1] | 0.002 |
| Cc1ccc(C(=O)Nc2cc(CN3CCCC3)cc(C(F)(F)F)c2)cc1Nc1ncnc2cncnc12 [V-8] | 0.004 |
| Cc1ccc(C(=O)Nc2cc(C(C)(C)C)n[nH]2)cc1Nc1ncnc2cncnc12 [V-9] | 0.005 |
| Cc1ccc(C(=O)Nc2cc(C(C)(C)C)nn2C)cc1Nc1ncnc2cncnc12 [V-10] | 0.014 |
| CNc1ncnc2c(Nc3cc(C(=O)Nc4cc(C(C)(C)C)on4)ccc3C)ncnc12 [VII-1] | 0.001 |
| CNc1ncnc2c(Nc3cc(NC(=O)c4cccc(C(C)(C)C#N)c4)ccc3C)ncnc12 [VIII-1] | < 0.001 |
| CC(C)(C#N)c1cccc(C(=O)Nc2cccc(Nc3ncnc4c(N)ncnc34)c2)c1 [VIII-2] | 0.03 |
| CNc1ncnc2c(Nc3cccc(NC(=O)c4cccc(C(C)(C)C#N)c4)c3)ncnc12 [VIII-3] | 0.013 |
